{"source": "patent US20260374773A1", "about": "“MULTI-CYCLIC IRAK AND FLT3 INHIBITING COMPOUNDS AND USES THEREOF” (CHILDREN'S HOSPITAL MEDICAL CENTER, priority 2022, published 2026)", "key": {"MOLM14 F691L cells": {"tested_on": "MOLM14 F691L cells", "test": "MOLM14 F691L cell viability (Cell Titer Glo)", "type": "cell-based", "settings": "Homo sapiens", "protocol": "Both cell lines have activated FLT3 receptors, each of which carry additional resistance mutations in the kinase domain (D835Y and F691L, respectively).\nMOLM14 D835Y and MOLM14 F691L cells were grown in RPMI-1640 media supplemented with 20% fetal bovine serum (FBS). For viability/cytotoxicity assessments, cells were seeded into 1536-well white polystyrene tissue culture-treated Greiner plates using a Multidrop Combi dispenser (ThermoFisher), in final volume 5 μL of growth media per well, at a density of 1000 cells per well. After cell addition, 23 nL of test compound were transferred into individual wells (22 doses tested for each test compound, with a 1:2 dilution series starting at 10 μM) via a 1536 pin-tool. Bortezomib (final concentration 2.3 μM) was used as a positive control for cell cytotoxicity. Plates were incubated for 48 hours at standard incubator conditions covered by a stainless steel gasketed lid to prevent evaporation. 48 hours post compound addition, 3 μL of Cell Titer Glo (Promega) were added to each well and plates were incubated at room temperature for 15 minutes with the stainless-steel lid in place. Luminescence readings were taken using a Viewlux imager (PerkinElmer) with a 2 second exposure time per plate."}, "FLT3": {"target": "T1, FLT3 (Homo sapiens, UniProt P36888)", "T1 sequence (P36888 27-993)": "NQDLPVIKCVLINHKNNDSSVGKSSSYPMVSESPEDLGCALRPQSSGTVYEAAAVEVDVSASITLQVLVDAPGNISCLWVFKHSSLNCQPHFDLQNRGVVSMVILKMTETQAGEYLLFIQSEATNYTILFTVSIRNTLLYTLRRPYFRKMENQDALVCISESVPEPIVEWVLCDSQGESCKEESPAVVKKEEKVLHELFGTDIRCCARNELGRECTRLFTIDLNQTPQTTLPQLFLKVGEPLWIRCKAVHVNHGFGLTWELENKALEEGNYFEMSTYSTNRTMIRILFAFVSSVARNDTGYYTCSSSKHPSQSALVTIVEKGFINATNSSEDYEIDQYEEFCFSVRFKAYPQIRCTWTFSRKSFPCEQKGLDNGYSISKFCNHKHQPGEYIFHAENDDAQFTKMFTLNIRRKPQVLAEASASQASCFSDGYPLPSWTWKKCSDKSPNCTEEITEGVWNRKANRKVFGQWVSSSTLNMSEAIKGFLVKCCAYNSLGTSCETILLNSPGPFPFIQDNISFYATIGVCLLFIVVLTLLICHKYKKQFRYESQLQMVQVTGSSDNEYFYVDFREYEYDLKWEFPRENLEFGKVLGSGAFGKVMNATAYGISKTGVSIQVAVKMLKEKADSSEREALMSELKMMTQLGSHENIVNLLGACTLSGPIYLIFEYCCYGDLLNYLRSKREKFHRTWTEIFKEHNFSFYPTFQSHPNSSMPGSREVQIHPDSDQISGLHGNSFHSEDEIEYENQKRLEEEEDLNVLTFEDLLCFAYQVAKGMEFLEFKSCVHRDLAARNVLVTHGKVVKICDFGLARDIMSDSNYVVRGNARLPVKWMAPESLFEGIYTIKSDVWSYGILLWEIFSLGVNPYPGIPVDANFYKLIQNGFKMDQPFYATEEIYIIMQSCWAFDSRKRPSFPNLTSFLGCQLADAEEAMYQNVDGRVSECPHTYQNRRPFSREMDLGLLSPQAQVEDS", "test": "NanoBRET target engagement assay in HEK-293 cells, FLT3", "type": "cell-based", "settings": "live HEK-293 cells, 1 h", "description": "The NanoBRET assay measures kinase engagement in real time in the context of the intact cell. Unlike the previously described biochemical kinase assay methodology, the NanoBRET assay measures the binding and activity characteristics under equilibrium conditions using full-length kinases in the presence of cellular concentrations of ATP in live, uncompromised cells. As such, the assay provides a more relevant assessment of kinase potency and selectivity that would be expected to be observed in the native cellular environment, where potency is often considerably lower than that observed in the isolated biochemical assays (Vasta, J. D. et al., (2018) Cell Chem. Biol. 25, 206-214). The assay uses a Kinase-NanoLuc® fusion vector expressing a kinase protein to which a luciferase tag has been added, a cell-permeant fluorescent NanoBRET™ tracer, a NanoLuc® substrate, and an extracellular NanoLuc® inhibitor. Upon expression of the luciferase-tagged kinase, cells will produce a strong BRET signal only in the presence of the NanoBRET™ tracer. The extracellular NanoLuc® inhibitor ensures that the BRET signal observed emanates only from live cells. Because the BRET signal has tight distance constraints, addition of the test compound will decrease the BRET signal if the compound competes with the NanoBRET™ tracer for binding to the kinase domain. Under the appropriate tracer conditions established by the manufacturer, quantitative intracellular affinity and relative potency can then be determined using Mass Action model equations.\nHEK-293 cells were purchased from ATCC. FuGENEHD Transfection Reagent, Kinase-NanoLucfusion plasmids, Transfection Carrier DNA, NanoBRETTracers and dilution buffer, NanoBRETNano-Glo Substrate, Extracellular NanoLucInhibitor were obtained from Promega.\nAssays were conducted following Promega assay protocol with some modifications. HEK-293 Cells were transiently transfected with Kinase-NanoLucFusion Vector DNA by FuGENEHD Transfection Reagent. Testing compounds were delivered into 384 well assay plate by Echo 550 (LabcyteInc, Sunnyvale, CA). Transfected cells were harvested and mixed with NanoBRETTracer Reagent and dispensed into 384 well plates and incubated at 37 °C in 5% CO2 cell culture incubator for 1 hour. The NanoBRETNano-Glo Substrate plus Extracellular NanoLucInhibitor Solution were added into the wells of the assay plate and incubated for 2-3 minutes at room temperature. The donor emission wavelength (460 nm) and acceptor emission wavelength (600 nm) were measured in the En Visionplate reader. The BRET Ratios were calculated.\nBRET Ratio=[(Acceptor sample÷Donor sample)−(Acceptor no-tracer control÷Donor no-tracer control)].\nThe IC50 values of compounds were calculated with Prism GraphPad program.\n• 1). Cultivate HEK-293 cells (70-80% confluence) appropriately prior to assay. Trypsinize and collect HEK-293 cells. • 2). Prepare lipid:DNA complexes as follows: • a. Prepare a 10 μg/ml solution of DNA in Opti-MEM without serum that consists of the following ratios of carrier DNA and DNA encoding NanoLuc® fusion. 9.0 μg/mL of Transfection Carrier DNA, 1.0 μg/mL of NanoLuc fusion vector DNA and 1 mL of Opti-MEM without phenol red. Mix thoroughly. • b. Add 30 μl of FuGENE HD Transfection Reagent into each milliliter of DNA mixture to form lipid:DNA complex. • c. Mix by inversion 10 times. • d. Incubate at ambient temperature for 20 minutes to allow complexes to form. • 3). In a sterile, conical tube, mix 1 part of lipid:DNA complex with 20 parts of HEK-293 cells in suspension. Mix gently by inversion 5 times. • 4). Dispense cells+lipid:DNA complex into a sterile tissue culture dish and incubate for 22-24 hours.\nEach test compound is delivered from the compound source plate to the wells of 384-well white NBS plate by Echo 550.\n3. Preparation of Cells with NanoBRET™ Tracer Reagent • 1). Remove medium from dish with transfected HEK-293 cells via aspiration, trypsinize and allow cells to dissociate from the dish. • 2). […]"}}, "data": [{"compound": "COc1cn2ncc(-c3nc(N[C@H]4CNCC[C@@H]4F)ncc3F)c2nc1C(C)(C)O", "note": "[Compound 6a, 2-(3-(5-fluoro-2-(((3S,4S)-4-fluoropiperidin-3-yl)amino)pyrimidin-4-yl)-6-methoxypyrazolo[1,5-a]pyrimidin-5-yl)propan-2-ol]", "values": [{"measurement": "IC50", "setting": "MOLM14 F691L cells; MOLM-14, Table 22, 48 h", "value": 45, "unit": "nM"}, {"measurement": "IC50", "setting": "FLT3; Table 20", "value": 12, "unit": "nM"}]}, {"compound": "COc1cn2ncc(-c3nc(N[C@@H]4CCCNC4)c(F)cc3F)c2nc1C(C)(C)O", "note": "[Compound 11, (R)-2-(3-(3,5-difluoro-6-(piperidin-3-ylamino)pyridin-2-yl)-6-methoxypyrazolo[1,5-a]pyrimidin-5-yl)propan-2-ol]", "values": [{"measurement": "IC50", "setting": "MOLM14 F691L cells; MOLM-14, Table 16, 48 h", "value": 142, "unit": "nM"}, {"measurement": "IC50", "setting": "FLT3; Table 14", "value": 5, "unit": "nM"}]}, {"compound": "COc1cn2ncc(-c3nc(N[C@H]4CNC[C@@H]4F)c(F)cc3F)c2nc1C(C)(C)O", "note": "[Compound 12, 2-(3-(3,5-difluoro-6-(((3S,4S)-4-fluoropyrrolidin-3-yl)amino)pyridin-2-yl)-6-methoxypyrazolo[1,5-a]pyrimidin-5-yl)propan-2-ol]", "values": [{"measurement": "IC50", "setting": "MOLM14 F691L cells; MOLM-14, Table 16, 48 h", "value": 449, "unit": "nM"}, {"measurement": "IC50", "setting": "FLT3; Table 14", "value": 321, "unit": "nM"}]}, {"compound": "COc1cn2ncc(-c3nc(N[C@H]4CNCC[C@@H]4F)c(F)cc3F)c2nc1C(C)(C)O", "note": "[Compound 13, 2-(3-(3,5-difluoro-6-(((3S,4S)-4-fluoropiperidin-3-yl)amino)pyridin-2-yl)-6-methoxypyrazolo[1,5-a]pyrimidin-5-yl)propan-2-ol]", "values": [{"measurement": "IC50", "setting": "MOLM14 F691L cells; MOLM-14, Table 16, 48 h", "value": 113, "unit": "nM"}, {"measurement": "IC50", "setting": "FLT3; Table 14", "value": 4, "unit": "nM"}]}]}
